Columns and labels:
Assay type in all cases: in vivo
[1] = Oral glucose tolerance 2, 4, 6, 8, 10 and 12 h after dosing in high fat fed mice; conditions: 10 nmol/kg s.c. single dose, high fat fed C57BL/6J mice
Experimental: C57Bl/6J male mice, 6 weeks old, were acclimatized to their new environment with free access to a high fat diet (D12492, Research Diet Inc., New Brunswick, USA) and water. The animals were injected s.c. with vehicle for a period of three days to acclimatize the animals to handling and injections. Blood samples were taken from the tip of the tail and blood glucose measured. The blood glucose (mM) concentration was analyzed by the immobilized glucose oxidase method using a drop of blood (<5 μl; Contour Autoanalyser, Bayer, Denmark) following the manufacturer's manual. After 4 weeks on the high fat diet the animals were weighed and the body weight was used to administer a body weight-corrected dose of peptide. An oral glucose tolerance test (OGTT) was performed after subjecting the animals to 4 hours of fasting. At 2, 4, 6, 8, 10 and 12 hours after single peptide or vehicle dosing an initial blood sample were taken (t=−0 min). Immediately thereafter, an oral dose of glucose (1 g/kg) was given and the animals were returned to their home cages (t=0). BG levels were measured at t=15 min, t=30 min, t=60 min and t=90 min. […]
An oral glucose tolerance test (OGTT) was performed after subjecting the animals to 4 hours of fasting. […] BG levels were measured at t=15 min, t=30 min, t=60 min and t=90 min. […]

[2] = Pharmacokinetic screening in mouse plasma after subcutaneous administration; conditions: sc, mice, 100 nmol/kg s.c., * = only two time points used for calculation
Experimental: Mice were dosed 100 nmol/kg subcutaneously (s.c.). The mice were sacrificed and the blood collected at the following time points; 0.5, 2, 4, 6, 16 and 24 h. Plasma samples were analyzed using protein precipitation, followed by solid phase extraction (SPE) and liquid chromatography mass spectrometry (LC-MS).
Pharmacokinetic profiles were determined for various acylated compounds.

[3] = Food intake in young lean and old obese C57BL/6J mice; conditions: s.c. at t=0 h and t=12 h, p<0.05 versus vehicle
Experimental: C57BL/6J mice were on a high fat diet for 11 days and C57BL/6J mice were on a high fat diet for 52 weeks.
3 days before study, the mice were transferred to individual cages and weighed. 4 days before study, they were acclimatized to handling and treatment by daily s.c. injections. On the day before the experiment food was removed at 20:00. […] Immediately after treatment (t=0), pre-weighed food were introduced to the mice and the cumulative food intake was measured by weighing the remaining food after t=1, 2, 4, 8, 12 and 24 hours. After weighing the food and the animals at t=24 h, the mice were sacrificed by cervical dislocation.
Immediately after treatment (t=0), pre-weighed food were introduced to the mice and the cumulative food intake was measured by weighing the remaining food after t=1, 2, 4, 8, 12 and 24 hours.

[4] = HbA1c in db/db mice after 28 days; conditions: 4 weeks, 12.7 nmol/kg, P=0.03 Students t-test
Experimental: Male mice (Long term high fat fed C57Bl/6J, short term high fat fed C57Bl/6J and db/db) were acclimatized with free access to food and water. They were housed in groups of 5-6 in a light-, temperature-, and humidity-controlled room (12-hour light:12-hour dark cycle, lights On/Off at 2000/0800 hour; 24° C.; 50% relative humidity).
The animals were injected s.c. with 100 μl vehicle (once a day) for a period of three days to acclimatize the animals to handling and injections. Blood samples were taken from the eye or from the tip of the tail. The animals were randomized before treatment.
Mice were treated twice daily s.c. with GluGLP-1 agonist or vehicle (injection volume=2.5 ml/kg). Throughout the study, body weights were recorded daily and used to administer the body weight-corrected doses of peptide. Peptide solutions were prepared fresh immediately before dosing. […]
The HbA1c determination is based on Turbidimetric INhibition ImmunoAssay (TINIA) in which HbA1c in the sample reacts with anti-HbA1c to form soluble antigen-antibody complexes. Additions of polyhaptens react with excess anti-HbA1c antibodies to form an insoluble antibody-polyhapten complex, which can be measured turbidimetrically. Liberated hemoglobin in the hemolyzed sample is converted to a derivative having a characteristic absorption spectrum, which is measured bichromatically during the preincubation phases. […]

[5] = Total cholesterol and HDL/LDL ratio in Diet Induced Obese (DIO) mice; conditions: 4 weeks, 12.7 nmol/kg, plasma, P<0.0001
Experimental: The assay is an enzymatic colorimetric method. In the presence of magnesium ions, dextran sulfate selectively forms water-soluble complexes with LDL, VLDLA and chylomicrons, which are resistant to PEG-modified enzymes. The HDL cholesterol is determined enzymatically by cholesterol esterase and cholesterol oxidase coupled with PEG to the amino groups. Cholesterol esters are broken down quantitatively to free cholesterol and fatty acids. HDL cholesterol is enzymatically oxidized to choles-4-en-3-one and H2O2, and the formed H2O2 is measured colorimetrically (Cobas®; Application note HDLC3).
The direct determination of LDL takes advantage of the selective micellary solubilization of LDL by a nonionic detergent and the interaction of a sugar compound and lipoproteins (VLDL and chylomicrons). The combination of a sugar compound with detergent enables the selective determination of LDL in plasma. […] Free cholesterol is then oxidized and the formed H2O2 is measured colorimetrically (Application note LDL_C, Cobas®).
Diet Induced Obese (DIO) mice were treated with vehicle or compound 7 for 4 weeks and plasma prepared from the collected blood samples. The total cholesterol, LDL and HDL were determined in each plasma sample (Cobas® application notes: CHOL2, HDLC3 and LDL_C) and results are shown in FIGS. 5 and 6.

[6] = Body weight gain in high fat fed C57BL/6J mice (10 days); conditions: 5 nmol/kg b.i.d. s.c., short term high fat-fed C57BL/6J mice
Procedure, shortened: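 Male C57Bl/6J mice fed high fat diet for 4 weeks from 6 weeks of age, vehicle-acclimatized 3 days, then dosed b.i.d. s.c. with peptide at 0.5 and 5 nmol/kg or vehicle. Doses corrected to daily body weights, which were recorded throughout.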

half-life [2]: 3.4 h
Structure (SMILES): CCCCCCCCCCCCCCCC(=O)N[C@@H](CCC(=O)NCCCC[C@H](NC(=O)[C@H](CO)NC(=O)[C@H](CC(=O)O)NC(=O)[C@H](CC(C)C)NC(=O)[C@H](Cc1ccc(O)cc1)NC(=O)[C@H](CCCCN)NC(=O)[C@H](CO)NC(=O)[C@H](Cc1ccc(O)cc1)NC(=O)[C@H](CC(=O)O)NC(=O)[C@H](CO)NC(=O)[C@@H](NC(=O)[C@H](Cc1ccccc1)NC(=O)[C@@H](NC(=O)CNC(=O)[C@H](CCC(N)=O)NC(=O)C(C)(C)NC(=O)[C@@H](N)Cc1c[nH]cn1)[C@@H](C)O)[C@@H](C)O)C(=O)N[C@@H](C)C(=O)N[C@@H](C)C(=O)N[C@@H](Cc1c[nH]cn1)C(=O)N[C@@H](CC(=O)O)C(=O)N[C@@H](Cc1ccccc1)C(=O)N[C@H](C(=O)N[C@@H](CCC(=O)O)C(=O)N[C@@H](Cc1c[nH]c2ccccc12)C(=O)N[C@@H](CC(C)C)C(=O)N[C@@H](CC(C)C)C(=O)N[C@@H](CO)C(=O)N[C@@H](C)C(N)=O)C(C)C)C(=O)O [Compound 7]
glucose tolerance (AUC during oral glucose tolerance test) [1]: significantly improves glucose tolerance | food intake, old obese mice ([3]; high fat diet for 52 weeks): reduced food intake during the 0-2, 0-4, 0-8, 0-12 and 0-24 time periods | food intake, young lean mice ([3]; high fat diet for 11 days): reduced food intake during the 0-4, 0-8, 0-12 and 0-24 time periods | ΔHbA1c (%) compared to vehicle [4]: decreased ΔHbA1c (%) significantly | HDL/LDL-ratio [5]: increased the HDL/LDL-ratio | total cholesterol concentrations [5]: decreased total cholesterol concentrations | body weight gain, high dose [6]: significantly decreased body weight gain at the high dose
